Square brackets hold non-standard residues; d marks the D form. Ends that are not written are not given here. * marks the point of attachment. Nle = CCCC[C@H](N)C(=O)O; For = O=C*
What was measured:
human platelets [1] = experiment: Intracellular free calcium in fura-2 loaded platelets; type: cell-based; settings: for calcium signal: thrombin-activated as well as non-activated platelets, 1 U thrombin, 10^−6 M peptide
Protocol: Washed platelets were activated with either 0 U or 1 U thrombin (Sigma) for 10 min at 37° C. Fura-2 loaded platelets were prepared by incubating the platelets, for 45 min with fura-2 acetoxymethyl ester at 37° C. The dye-loaded platelets were washed and resuspended in calcium-free HBSS standard solution. The cells were then transferred into quartz cuvettes (10^9 cells in 2 ml), which were placed in a model MS-III spectrofluorometer (Photon Technologies, Inc.; South Brunswick, N.J.) and continuously stirred at 37° C. Stimulants were added in a 2 μl volume at indicated time points. The ratios of fluorescence at excitation wavelengths 340 and 380 nm and emission wavelength at 510 nm were calculated using FeliX fluorescence analysis software (Photon Technology Instruments; London, Ontario, Canada). Representative traces from at least six independent experiments are shown.

Hep-2 cells = experiment: Induction of apoptosis in Hep-2 cells, scored by H-33342/SYTOX staining; type: cell-based; settings: 1 μM for 5 hours
Protocol: Hep-2-cells were grown in DMEM medium supplemented with 10% FCS. Before each experiment, the cells were washed and the media was replaced with serum-free DMEM. After adaptation to this medium, cells were exposed to repeated freeze/thaw or UV radiation (1000J) in a UV Stratalinker UV oven (Stratagene) to induce necrosis. To induce apoptosis, cells were treated with 1 μM staurosporine (STS) for 5 hours. After the treatments, the cells were placed into a tissue culture incubator overnight. The supernatant was collected and used for experimentation and the cells were stained with a mixture of the membrane permeant dye H-33342 (500 ng/ml) and the membrane impermeant dye SYTOX (500 nM) (Molecular Probes; Eugene, Oreg.). Necrotic (damaged plasma membrane; non-condensed nuclei) and apoptotic (intact plasma membrane; characteristically condensed or fragmented nuclei) cells were scored. Necrotic cells after UV radiation=84%. Apoptotic cells after STS treatment=80%.

human platelets [2] = experiment: Platelet chemotaxis by transwell migration (ChemoTx microplate); type: cell-based; settings: for chemotaxis of thrombin-activated platelets toward peptide: 10^−6 and 10^−7 M peptide, 10 U thrombin, P<0.001
Protocol: The chemotactic activity of activated and non-activated platelets in response to different concentrations of fMLF by transwell migration (FIG. 4a) was determined. […] Both thrombin-activated and non-activated platelet migration followed a concentration-response curve that was greatest at 10^−6 M fMLF (27.2±12) in the thrombin-activated platelets and 10^−7 M fMLF (11.5±6.5) in the non-activated platelets (FIG. 4a). […] Next the dependence of platelet chemotaxis on the presence of a Formyl group on the peptide was tested. […] Non-activated platelets behaved similarly. Thus, the presence of a Formylgroup was essential for FPR binding, calcium mobilization and platelet chemotaxis.
Platelet migration was assessed using a 96-well ChemoTx® microplate (Neuro Probe, Gaithersburg Md.). For all chemotaxis experiments, different concentrations of stimulants were placed in the bottom wells of the microplate and the filter was positioned (2 μm pore size). The cell suspension was seeded onto the top of the filter (30 μl) and the microplates were incubated for 2 hrs at 37° C. For all chemokinesis experiments, different concentrations of stimulants were placed in the bottom wells of the microplate and the filter was positioned. The cell suspension containing different concentrations of stimulants were placed on the filter (30 μl) in a gradient fashion. After incubation, the lid was removed and the filter was gently wiped with a cell harvester and carefully flushed with media to remove any of the non-migrated cells. The filter was then carefully removed and the migrated cells were counted by light microscopy. Results are expressed as the mean value (±SD) of total migrated cells, in triplicate samples, and are taken from five experiments independent.
Chemotactic responses were distinguished from chemokinetic responses by placing increasing concentrations of fMLF in the upper and lower chambers of the transwell plates (Table 1).
There was no enhanced cell migration when higher concentrations of fMLF were present in the upper wells or with equal concentrations of fMLF in both the upper and lower wells, as would be seen with chemokinesis.
Different concentrations of fMLF were placed in the upper and/or lower wells of the chemotaxis plate; platelets at 10^6 cells/ml were placed on the upper filter. After a 2-hour incubation, the non-migrated cells were removed and the cells that migrated across the filter were counted. The results are expressed as the mean value (±SD) of the migrated cells in at least six separate experiments (n=24). Grey shading indicates wells containing a greater concentration of fMLF in the lower well compared to the upper well. Platelet migration in transwells maintaining a gradient of fMLF between chambers were compared with wells containing equimolar concentrations of fMLF in both chambers (p<0.002, Student's t-test)

[3] = molecular target: T1, N-formyl peptide receptors on human platelets (Homo sapiens, UniProt P21462); experiment: Flow cytometry of fluorescein-conjugated peptide binding to human platelets; settings: 10^−7 M peptide; platelets treated with 0, 0.001, 0.1 or 10 U thrombin
T1 construct: Platelet-rich plasma was prepared from whole blood by differential centrifugation; endogenous in cells
T1 sequence (P21462 1-350): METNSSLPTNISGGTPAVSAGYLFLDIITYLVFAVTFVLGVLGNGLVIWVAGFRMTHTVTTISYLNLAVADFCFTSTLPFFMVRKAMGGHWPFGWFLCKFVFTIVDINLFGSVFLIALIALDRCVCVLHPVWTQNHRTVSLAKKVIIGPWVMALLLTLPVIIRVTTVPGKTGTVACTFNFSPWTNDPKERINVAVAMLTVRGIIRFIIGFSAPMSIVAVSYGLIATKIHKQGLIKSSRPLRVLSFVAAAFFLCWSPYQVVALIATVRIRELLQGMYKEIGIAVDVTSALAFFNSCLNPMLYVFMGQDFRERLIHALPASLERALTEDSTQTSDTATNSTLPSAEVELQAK
Protocol: (§1) To test whether human platelets express N-formyl peptide receptors, the binding of identical fluorescein-conjugated peptides to human platelets was evaluated by flow cytometry, where one contained a formyl group N-formyl-Nle-Leu-Phe-Nle-Tyr-Lys (fNLFNYK-fl) (SEQ ID NO:1), and the other without a formyl group Nle-Leu-Phe-Nle-Tyr-Lys (NLFNYK-fl) (SEQ ID NO:2). […] However, with permeabilization of non-activated platelets, fluorescein staining of granule-like particles was detected within the interior of platelets (FIG. 1d). […] Differential interference contrast (DIC) imaging (FIG. 1g insert) confirmed the presence of platelets.
Platelet-rich plasma was prepared from whole blood by differential centrifugation at 800×g for 5 min at 22° C. The top two-thirds of the platelet-rich plasma was removed and washed in PBS containing 1% fetal bovine serum. Washed platelets were activated with 0, 0.001, 0.1 or 10 U thrombin (Sigma, St. Louis, Mo.) for 10 min at 37° C. The platelets were then washed and incubated with 10^−7 M fluorescein conjugated N-formyl peptide; fNLFNYK-fl (SEQ ID NO:1; Molecular Probes, Eugene, Oreg.) or 10^−7 M fluorescein conjugated non-N-formylated peptide; NLFNYK-fl (SEQ ID NO:2; New England Peptide, Fitchburg, Mass.) for 30 min at room temperature. […] Samples were analyzed on a Becton Dickinson (Franklin Lakes, N.J.) FASCcalibur/CELLQuest system. […]

[4] = molecular target: T1, N-formyl peptide receptors on human platelets; experiment: Confocal microscopy of fluorescein-conjugated peptide binding to human platelets; settings: 10^−6 M peptide; thrombin-activated platelets
Protocol: as §1
Platelet-rich plasma was prepared as mentioned above. Washed platelets were activated with either 1 or 10 U thrombin (Sigma) for 10 min at 37° C. The platelets were washed two times and fixed with 4% paraformaldehyde for 20 min at 4° C. The platelets were then washed and permeablized with 100% methanol for 15 min at 4° C. […] The platelets were washed two times, spun onto cover slips, and mounted with ProLong® Antifade Kit (Molecular Probes). Confocal images were collected on a Leica TCS-NT/SP confocal microscope (Leica Microsystems, Exton, Pa.) using a 100-x oil emersion objective NA 1.4, zoom 2. Representative images from three independent experiments are shown (FIG. 2).

MEG-01 cells = experiment: RT-PCR of FPR and FPRL-1 in MEG-01 cells; type: cell-based, human; settings: 10^−7 M PMA for 5 days
Protocol: To further confirm that platelets express human N-formyl peptide receptors (FPR), RT-PCR of RNA harvested from the megakaryocytic cell line MEG-01 was performed. […] Treatment of MEG-01 cells with phorbol 12-myristate 13-acetate (PMA) induced differentiation with production of platelet-like structures^36. RNA harvested from HL60 cells, a promyelocytic cell line that expresses both FPR and FPRL 1, is shown in lane 1 (RT included), lane 2 (RT excluded), and lane 3 (RNA excluded) (FIG. 2a). […] RT-PCR generated bands were confirmed to encode the FPR or FPRL1 by sequence analysis. FPR protein expression in platelets was shown by immunoblotting with FPR specific antibody.
Total RNA was isolated using Ultraspec RNA isolation system (Biotecx Laboratories Inc., Houston Tes.), according to the manufacturer's protocol. To confirm purity of the product RNA, absorption ratios at 260/280 nm were determined to be […] for all samples. The samples were adjusted to 200 ng/μl for reverse transcription and PCR according to absorption at 260 nm. Total RNA was reversed-transcribed using Thermoscript RT (GibcoBRL, Gaithersburg, Md.). Conditions for PCR amplification of the resulting first-strand DNA template involved preheating a mixture of Taq DNA polymerase (5 U/ml) (GibcoBRL), primers, cDNA, and PCR components to 95° C. for 5 min before amplification. […]

CN[C@@H]1C[C@H]2O[C@@](C)([C@@H]1OC)n1c3ccccc3c3c4c(c5c6ccccc6n2c5c31)C(=O)NC4 [STS, staurosporine]
platelet calcium flux response to thrombin after incubation with STS (human platelets [1]; platelets incubated with STS directly): capable of subsequent calcium flux responses to thrombin | apoptotic cells after treatment (Hep-2 cells): 80%

N-formyl-methionine-leucine-phenalanine [fMLF]
checkerboard analysis: chemotaxis versus chemokinesis (human platelets [2]; fMLF in upper and/or lower wells, 2-hour incubation): directed migration and not chemokinesis | platelet migration, mean value (±SD) of migrated cells (human platelets [2]; non-activated platelets, 10^−7 M fMLF (greatest response)): 11.5±6.5 | platelet migration, mean value (±SD) of migrated cells (human platelets [2]; thrombin-activated platelets, 10^−6 M fMLF (greatest response)): 27.2±12 | calcium signal after pretreatment with thrombin (human platelets [1]; pretreatment with thrombin (1 U), then fMLF stimulation): greater fluorescent signal | calcium signal (human platelets [1]): induced a calcium signal

For-[Nle]LF[Nle]YK [fNLFNYK-fl]
binding of fluorescein-conjugated peptide to platelets by flow cytometry [3]: increased binding with increased thrombin activation | binding of fluorescein-conjugated peptide to platelets by confocal microscopy [4]: upregulation of external N-formyl peptide binding with platelet activation | chemotaxis of thrombin-activated platelets toward peptide (human platelets [2]): significantly more migration

CCCCCCCCCCCCCC(=O)O[C@@H]1[C@@H](C)[C@@]2(O)[C@@H](C=C(CO)C[C@]3(O)C(=O)C(C)=C[C@@H]23)[C@@H]2C(C)(C)[C@]12OC(C)=O [PMA, phorbol 12-myristate 13-acetate]
FPR and FPRL-1 mRNA expression after induced megakaryocyte differentiation (MEG-01 cells): transactivation of the genes encoding both the FPR and FPRL-1

Nle-Leu-Phe-Nle-Tyr-Lys ([Nle]LF[Nle]YK-fluorescein) [NLFNYK-fl, fluorescein conjugated non-N-formylated peptide (New England Peptide)]
binding of fluorescein-conjugated peptide to platelets by flow cytometry [3]: non-specific and did not increase with thrombin activation | binding of fluorescein-conjugated peptide to platelets by confocal microscopy [4]: no binding | chemotaxis of thrombin-activated platelets toward peptide (human platelets [2]): failed to induce significant chemotaxis

MLF: the non formyl peptide, MLF
calcium signal (human platelets [1]): failed to elicit a calcium signal

thrombin
calcium signal (human platelets [1]): induced a calcium signal

— patent US20060171944A1, “N-formyl peptide receptor mediation of platelet chemotaxis toward injured cells and activation of immune response” (priority 2002, published 2006)
